Experiments:
chymotrypsin = chymotrypsin (Bos taurus, UniProt P00766); assay: Inactivation of chymotrypsin by biotin-isocoumarins (incubation method); type: biochemical, bovine; conditions: pH 7.5, inhibitor 20-400 μM; 0.1 M Hepes, 0.5 M NaCl, pH 7.5, 5-10% Me2SO, 25° C.; two values given for some compounds; read-out: kobs/[I] Chymotrypsin
Description: (§1) Inactivation rates of serine proteases by substituted isocoumarins were measured by the incubation method. An aliquot of inhibitor (25 or 50 μl) in Me2 SO was added to a buffered enzyme solution (0.01-2.3 μM) to initiate the inactivation. Aliquots (50-100 μl) were withdrawn at various intervals and the residual enzymatic activity was measured. Me2 SO concentration in the reaction mixture was 8-12% (v/v). 0.1M Hepes, 0.5M NaCl, pH 7.5 buffer was utilized for the assays of chymotrypsin, cathepsin G (cat G), porcine pancreatic elastase (PPE), human leukocyte elastase (HLE) and rat granule serine proteases. 0.1M Hepes, 0.01M CaCl2, pH 7.5 buffer was utilized for the assays of trypsin and human recombinant (HR) granzyme A. The inhibitor concentrations are shown in the Tables I and II. Peptide nitroanilides with appropriate sequence were used as substrates for various serine proteases. All peptide 4-nitroanilide hydrolysis was measured at 410 nm (ε410 =8800M^-1 cm^-1; Erlanger et al., Arch. Biochem. Biophys. 95, pp 271-278 (1961), incorporated herein by reference). Peptide thioester hydrolysis rates were measured with assay mixtures containing 4,4'-dithiodipyridine (ε324 =19800M^-1 cm^-1; Grasetti & Murray, Arch. Biochem. Biophys. 119, pp. 41-49 (1967), incorporated herein by reference). First order inactivation rate constant (kobs) were obtained from plots of ln (vt /vo) vs time, and the correlation coefficients were greater than 0.98.
(§2) ^a Inhibition was measured in 0.1 M Hepes, 0.5 M NaCl (or 0.01 M
(§3) CaCl2), pH 7.5 buffer, 5-10% Me2 SO and at 25° C.
(§4) SucVal-Pro-NA (0.48 mM) was used as the substrate for chymotrypsin and ca
^b Inhibitor concentrations were 20-400 μM.

cathepsin G (cat G) = target: T1, cathepsin G (cat G) (Homo sapiens, UniProt P08311); assay: Inactivation of cathepsin G by biotin-isocoumarins (incubation method); type: biochemical; conditions: inhibitor 75-400 μM; pH 7.5, 25° C.; NI = no inhibition after 10 min of incubation; read-out: kobs/[I] Cat. G
T1 sequence (P08311 21-255): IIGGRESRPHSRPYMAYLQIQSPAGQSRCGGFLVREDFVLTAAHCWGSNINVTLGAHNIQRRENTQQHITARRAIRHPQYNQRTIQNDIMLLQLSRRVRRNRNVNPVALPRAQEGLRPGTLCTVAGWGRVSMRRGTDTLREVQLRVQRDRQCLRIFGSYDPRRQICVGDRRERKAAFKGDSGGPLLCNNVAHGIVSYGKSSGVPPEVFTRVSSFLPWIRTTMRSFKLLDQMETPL
Description: as §1, §2, §3, §4
(§5) G. MeOSuc-Ala-Ala-Pro-Val-NA (0.24-0.47 mM) and SucAla-Ala-Ala-NA
^c Inhibitor concentrations were 75-400 μM.
(§6) ^h No inhibition after 10 min of incubation of inhibitor and enzyme.
(§7) ^i Percentage of inhibition after 10 min of incubation of inhibitor

[1] = target: T2, human leukocyte elastase (HLE) (Homo sapiens, UniProt P08246); assay: Inactivation of human leukocyte elastase by biotin-isocoumarins (incubation method); type: biochemical; conditions: inhibitor 1.6-210 μM; pH 7.5, 25° C.; read-out: kobs/[I] HLE
T2 sequence (P08246 30-267): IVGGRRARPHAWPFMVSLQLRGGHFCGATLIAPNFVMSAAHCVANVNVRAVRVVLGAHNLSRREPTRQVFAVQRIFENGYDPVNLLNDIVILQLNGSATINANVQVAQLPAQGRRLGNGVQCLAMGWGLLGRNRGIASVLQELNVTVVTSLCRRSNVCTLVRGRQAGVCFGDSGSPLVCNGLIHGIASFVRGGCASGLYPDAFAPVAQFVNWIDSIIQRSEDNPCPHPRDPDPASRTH
Description: as §1, §2, §3, §5
(§8) (0.29-0.48 mM) were used as the substrate for HLE and PPE respectively.
^d Inhibitor concentrations were 1.6-210 μM.

[2] = target: porcine pancreatic elastase (PPE) (Sus scrofa, UniProt P00772); assay: Inactivation of porcine pancreatic elastase by biotin-isocoumarins (incubation method); type: biochemical; conditions: inhibitor 38-78 μM; pH 7.5, 25° C.; NI = no inhibition after 10 min of incubation; read-out: kobs/[I] PPE
Sequence of porcine pancreatic elastase (PPE) (P00772 27-266): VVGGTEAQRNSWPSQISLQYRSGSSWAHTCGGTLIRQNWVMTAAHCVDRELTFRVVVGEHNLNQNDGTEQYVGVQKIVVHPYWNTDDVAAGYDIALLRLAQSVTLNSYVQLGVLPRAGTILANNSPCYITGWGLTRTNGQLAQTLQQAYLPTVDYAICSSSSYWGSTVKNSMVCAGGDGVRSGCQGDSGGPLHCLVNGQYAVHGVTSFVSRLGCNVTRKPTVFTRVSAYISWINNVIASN
Description: as §1, §2, §3, §5, §8
^e Inhibitor concentrations were 38-78 μM.
as §6

trypsin [3] = target: T3, trypsin (Bos taurus, UniProt P00760); assay: Inactivation of trypsin by biotin-isocoumarins (incubation method); type: biochemical; conditions: inhibitor 41-42 μM; 0.1 M Hepes, 0.01 M CaCl2, pH 7.5, 25° C.; read-out: kobs/[I] Trypsin
T3 sequence (P00760 24-246): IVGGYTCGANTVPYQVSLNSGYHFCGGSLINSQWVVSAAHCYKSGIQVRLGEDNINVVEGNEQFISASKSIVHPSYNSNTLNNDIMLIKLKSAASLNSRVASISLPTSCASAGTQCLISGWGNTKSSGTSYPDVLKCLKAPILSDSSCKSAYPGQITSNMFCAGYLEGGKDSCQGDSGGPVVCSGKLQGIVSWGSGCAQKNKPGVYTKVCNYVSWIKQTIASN
Description: as §1, §2, §3
(§9) ZGlu-Phe-Arg-NA (0.032 mM) was a substrate for trypsin. ZArg-SBzl (0.120
^f Inhibitor concentrations were 41-42 μM.

PPE [4] = target: T4, PPE (Sus scrofa, UniProt P00772); assay: Reactivation of inhibited PPE in buffer and with NH2OH; type: biochemical, porcine; conditions: for % of Enzyme Activity Reactivated, PPE +NH2OH: 0.4 M NH2OH, immediately after addition; for % of Enzyme Activity Reactivated, PPE in buffer: after removal of excess inhibitor, 25° C. for two days, 2880 min
T4 sequence (P00772 27-266): as the sequence (P00772 27-266) above
Description: (§10) ^a Inhibition was performed at 0.1 M Hepes, 0.5 M NaCl, pH 7.5 buffer
(§11) 10% Me2 SO and 25° C. Reactivation was carried out in the
presence of 0.4 M of NH2 OH, and occurred immediately after the
(§12) ^b Enzyme activity was measured after removal of excess inhibitor by
(§13) centrifugation at 0° C. with centricon10 microconcentrator and
(§14) staying at 25° C. for two days.

trypsin [5] = target: T3, trypsin; assay: Reactivation of inhibited trypsin in buffer; type: biochemical; conditions: after removal of excess inhibitor, 25° C. for two days
Description: as §10, §11, §12, §13, §14

PPE [6] = target: T4, PPE; assay: Effect of streptavidin and avidin on reactivation of inhibited PPE; type: biochemical, porcine; conditions: monitored for two days
Description: ^a Percentage of regained enzymatic activity was measured in 0.1 M
Hepes, 0.5 M NaCl, pH 7.5 buffer, 8% Me2 SO and at 25° C.
Excess inhibitor was removed from enzymeinhibitor mixture by
centrifugation twice with Amicon microconcentrator10. Then 3-4 units of
avidin or strepavidin was added and enzymatic activity was monitored for […]

[7] = target: T5, human recombinant (HR) granzyme A (Homo sapiens, UniProt P12544); assay: Inactivation of human recombinant granzyme A by biotin-isocoumarins (incubation method); type: biochemical; conditions: inhibitor 160-210 μM, pH 7.5, 25° C.
T5 sequence (P12544 29-262): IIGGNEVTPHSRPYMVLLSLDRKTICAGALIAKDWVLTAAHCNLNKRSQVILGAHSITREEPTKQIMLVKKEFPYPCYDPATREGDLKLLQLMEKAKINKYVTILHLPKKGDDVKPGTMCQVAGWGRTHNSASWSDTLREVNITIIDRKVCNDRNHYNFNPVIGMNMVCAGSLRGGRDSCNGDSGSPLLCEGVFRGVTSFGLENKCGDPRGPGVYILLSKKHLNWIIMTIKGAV
Description: as §1, §2, §3, §9
mM) was a substrate for human recombinant (HR) granzyme A.
^g Inhibitor concentrations were 160-210 μM.
as §6, §7

SMILES	kinact/KI (chymotrypsin)	kinact/KI (cathepsin G (cat G))	kinact/KI [1]	kinact/KI [2]	kinact/KI (trypsin [3])	% of Enzyme Activity Reactivated, PPE +NH2OH (PPE [4])	% of Enzyme Activity Reactivated, PPE in buffer (PPE [4])	% of Enzyme Activity Reactivated, Trypsin in buffer (trypsin [5])	% of Regained Enzyme Activity, PPE, +Avidin (PPE [6]; 3-4 units avidin, 2880 min)	% of Regained Enzyme Activity, PPE, +Streptavidin (PPE [6]; 3-4 units streptavidin, 2880 min)	% of Regained Enzyme Activity, PPE, Buffer (PPE [6]; pH 7.5, 8% Me2SO, 25° C.)	Percentage of inhibition of HR Granzyme A after 10 min of incubation of inhibitor and enzyme [7]
CCCOc1oc(=O)c2cc(NC(=O)CCCCCNC(=O)CCCC[C@@H]3SC[C@@H]4NC(=O)N[C@@H]43)ccc2c1Cl [Compound 4, 7-(6-biotinylaminocaproyl)amino-4-chloro-3-propoxyisocoumarin]	260 M⁻¹ s⁻¹	3.3 M⁻¹ s⁻¹	76700 M⁻¹ s⁻¹	350 M⁻¹ s⁻¹	10.6 M⁻¹ s⁻¹	90%	37%	33%	32%	43%	37%	
CCOc1oc(=O)c2cc(NC(=O)CCCCCNC(=O)CCCC[C@@H]3SC[C@@H]4NC(=O)N[C@@H]43)ccc2c1Cl [Compound 5, 7-(6-biotinylaminocaproyl)amino-4-chloro-3-ethoxyisocoumarin]	260 M⁻¹ s⁻¹	59 M⁻¹ s⁻¹	96000 M⁻¹ s⁻¹	520 M⁻¹ s⁻¹	16.6 M⁻¹ s⁻¹	93%	66%	92%				26%

From patent US5306824A, “Biotinylated isocoumarins” (Georgia Tech Research Corporation, priority 1992, dated 1994)
